Key:
[1] = system: YY1-YY1 enhancer-promoter interactions; test: H3K27ac HiChIP of enhancer-promoter interactions after YY1 degradation and washout; format: cell-based, mouse; settings: mES cells
Method: HiChIP was performed as described in (Mumbach et al., 2016) with a few modifications. Ten million cells cross-linked for 10 min at room temperature with 1% formaldehyde in growth media and quenched in 0.125 M glycine. After washing twice with ice-cold PBS, the supernatant was aspirated and the cell pellet was flash frozen in liquid nitrogen and stored at −80° C.
Cross-linked cell pellets were thawed on ice, resuspended in 800 μL of ice-cold Hi-C lysis buffer (10 mM Tris-HCl pH 8.0, 10 mM NaCl, and 0.2% IGEPAL CA-630 with 1× cOmplete protease inhibitor (Roche, 11697498001)), and incubated at 4° C. for 30 minutes with rotation. Nuclei were pelleted by centrifugation at 2500 rcf for 5 min at 4° C. and washed once with 500 μL of ice-cold Hi-C lysis buffer. After removing supernatant, nuclei were resuspended in 100 μL of 0.5% SDS and incubated at 62° C. for 10 minutes. SDS was quenched by adding 335 μL of 1.5% Triton X-100 and incubating for 15 minutes at 37° C. After the addition of 50 μL of 10×NEB Buffer 2 (NEB, B7002) and 375 U of MboI restriction enzyme (NEB, R0147), chromatin was digested at 37° C. for 2 hours with rotation. Following digestion, MboI enzyme was heat inactivated by incubating the nuclei at 62° C. for 20 min. […]

[2] = target: T1, FKBP degron-tagged YY1 protein (Mus musculus, UniProt Q00899+Q8C7D2); test: dTAG inducible degradation of FKBP tagged YY1 (western blot); format: cell-based
T1 construct: A clonal homozygous knock-in line expressing FKBP tagged YY1 was used for the degradation experiments; endogenous in cells; host or cells: V6.5 mES cells, clonal homozygous knock-in (repair plasmids pAW62.YY1.FKBP.knock-in.mCherry and pAW63.YY1.FKBP.knock-in.BFP)
T1 sequence (Q00899 with tags, fused parts or gaps): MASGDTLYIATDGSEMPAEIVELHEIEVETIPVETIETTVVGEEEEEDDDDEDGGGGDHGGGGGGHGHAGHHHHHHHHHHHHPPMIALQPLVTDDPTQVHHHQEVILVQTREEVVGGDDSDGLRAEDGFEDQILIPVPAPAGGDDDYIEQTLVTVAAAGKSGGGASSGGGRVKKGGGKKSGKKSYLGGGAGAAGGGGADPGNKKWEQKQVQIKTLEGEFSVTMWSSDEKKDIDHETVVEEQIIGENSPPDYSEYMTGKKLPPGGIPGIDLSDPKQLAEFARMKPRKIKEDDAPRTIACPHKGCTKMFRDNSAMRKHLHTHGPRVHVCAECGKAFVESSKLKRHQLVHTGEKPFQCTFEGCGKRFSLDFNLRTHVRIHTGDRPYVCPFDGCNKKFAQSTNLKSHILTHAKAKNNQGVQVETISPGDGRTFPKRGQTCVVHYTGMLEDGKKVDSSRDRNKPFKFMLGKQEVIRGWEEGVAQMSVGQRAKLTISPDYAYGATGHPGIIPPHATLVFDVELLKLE
T1 sequence (Q8C7D2 whole entry): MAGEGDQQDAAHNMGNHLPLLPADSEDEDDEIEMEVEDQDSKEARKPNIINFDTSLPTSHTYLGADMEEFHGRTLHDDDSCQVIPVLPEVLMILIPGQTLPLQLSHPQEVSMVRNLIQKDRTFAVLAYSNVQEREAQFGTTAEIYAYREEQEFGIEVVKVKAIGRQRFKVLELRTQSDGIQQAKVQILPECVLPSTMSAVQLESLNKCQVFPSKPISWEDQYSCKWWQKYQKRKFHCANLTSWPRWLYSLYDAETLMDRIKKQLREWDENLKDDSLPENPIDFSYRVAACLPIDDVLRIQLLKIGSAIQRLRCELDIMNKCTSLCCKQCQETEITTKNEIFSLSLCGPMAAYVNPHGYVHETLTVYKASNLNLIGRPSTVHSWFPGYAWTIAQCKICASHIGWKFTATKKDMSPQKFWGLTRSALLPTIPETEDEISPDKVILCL
T1 sequence (Q3U1J4 whole entry partner): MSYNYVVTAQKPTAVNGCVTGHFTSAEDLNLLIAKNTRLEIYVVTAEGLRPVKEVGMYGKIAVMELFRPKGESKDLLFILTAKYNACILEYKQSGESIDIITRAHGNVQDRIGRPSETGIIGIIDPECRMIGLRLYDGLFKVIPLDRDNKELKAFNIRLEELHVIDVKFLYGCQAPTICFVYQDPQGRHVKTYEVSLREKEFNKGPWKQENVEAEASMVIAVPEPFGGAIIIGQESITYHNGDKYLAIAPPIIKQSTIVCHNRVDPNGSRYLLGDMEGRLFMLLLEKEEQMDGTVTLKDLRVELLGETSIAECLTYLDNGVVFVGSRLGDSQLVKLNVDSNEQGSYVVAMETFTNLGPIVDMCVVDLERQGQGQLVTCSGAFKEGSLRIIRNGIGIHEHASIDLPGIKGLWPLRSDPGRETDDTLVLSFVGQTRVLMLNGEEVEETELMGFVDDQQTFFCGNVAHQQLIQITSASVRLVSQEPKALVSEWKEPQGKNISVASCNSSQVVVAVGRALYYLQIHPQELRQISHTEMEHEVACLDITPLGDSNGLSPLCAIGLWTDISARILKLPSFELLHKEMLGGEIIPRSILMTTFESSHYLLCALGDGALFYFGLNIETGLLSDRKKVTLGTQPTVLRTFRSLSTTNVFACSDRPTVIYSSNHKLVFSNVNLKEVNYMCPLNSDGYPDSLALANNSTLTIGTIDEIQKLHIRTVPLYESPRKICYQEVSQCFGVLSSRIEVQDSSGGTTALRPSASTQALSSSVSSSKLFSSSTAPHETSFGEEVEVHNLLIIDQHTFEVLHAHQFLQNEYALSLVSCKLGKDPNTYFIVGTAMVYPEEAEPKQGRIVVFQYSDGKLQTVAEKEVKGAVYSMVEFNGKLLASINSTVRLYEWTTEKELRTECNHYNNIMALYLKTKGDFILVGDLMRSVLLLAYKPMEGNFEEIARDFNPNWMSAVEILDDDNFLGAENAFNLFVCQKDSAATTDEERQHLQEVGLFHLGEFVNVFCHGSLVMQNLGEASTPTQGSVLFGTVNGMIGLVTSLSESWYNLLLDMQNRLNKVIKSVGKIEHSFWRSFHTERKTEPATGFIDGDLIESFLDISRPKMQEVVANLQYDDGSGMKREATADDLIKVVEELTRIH
Method: For the generation of the endogenously tagged lines, five hundred thousand mES cells were transfected with 2.5 ug Cas9 plasmid and 1.25 ug non-linearized repair plasmid 1 (pAW62.YY1.FKBP.knock-in.mCherry) and 1.25 ug non-linearized repair plasmid 2 (pAW63.YY1.FKBP.knock-in.BFP). Cells were sorted after 48 hours for the presence of GFP. Cells were expanded for five days and then sorted again for double positive mCherry and BFP cells. Thirty thousand mCherry+/BFP+ sorted cells were plated in a six-well plate in a 1:2 serial dilution (first well 15,000 cells, second well 7,500 cells, etc). The cells were grown for approximately one week in 2i medium and then individual colonies were picked using a stereoscope into a 96-well plate. Cells were expanded and genotyped by PCR (YY1_gPCR_3F/3R, Table S3). Clones with a homozygous knock-in tag were further expanded and used for experiments.
A clonal homozygous knock-in line expressing FKBP tagged YY1 was used for the degradation experiments. Cells were grown two passages off MEFs and then treated with dTAG-47 at a concentration of 500 nM for 24 hours.
The homozygous knock-in line expressing FKBP tagged YY1 was cultured on 2i+LIF media. Cells were treated with dTAG-47 at a concentration of 500 nM for 24 hours. After 24 hours of drug treatment, cells were washed three times with PBS and passaged onto a new plate. […]

HA-tagged YY1 = test: co-immunoprecipitation from nuclear extract treated with RNase A before IP with anti-tag antibodies, western blot quantification
HA-tagged YY1, sequence (P25490 whole entry): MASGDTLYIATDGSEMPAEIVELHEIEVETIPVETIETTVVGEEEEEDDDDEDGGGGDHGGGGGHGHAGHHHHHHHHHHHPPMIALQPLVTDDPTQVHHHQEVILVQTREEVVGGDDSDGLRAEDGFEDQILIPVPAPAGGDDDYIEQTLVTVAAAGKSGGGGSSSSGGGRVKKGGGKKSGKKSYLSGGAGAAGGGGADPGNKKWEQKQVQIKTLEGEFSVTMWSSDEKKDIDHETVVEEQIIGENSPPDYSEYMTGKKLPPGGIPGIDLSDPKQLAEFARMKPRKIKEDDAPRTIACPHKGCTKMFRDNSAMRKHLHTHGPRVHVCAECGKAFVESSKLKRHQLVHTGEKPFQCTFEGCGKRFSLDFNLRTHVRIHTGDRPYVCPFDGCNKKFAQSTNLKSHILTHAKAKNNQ

[3] = system: linear DNA template containing YY1 binding sites; test: In vitro DNA circularization assay (T4 DNA ligase); format: biochemical; settings: 0.25 nM DNA, 0.12 μg/μL protein, 20° C.; competitor 100 nM
Method: First, two plasmids (pAW49, pAW79) were generated. pAW49 contains YY1 binding sites separated by ˜3.5 kb of intervening DNA. pAW79 is identical except it contains filler DNA instead of the YY1 motifs. The intervening DNA was chosen based on looking at YY1 ChIP-seq and motif distribution in mES cells to identify regions that lacked YY1 occupancy and YY1 binding motifs. The YY1 binding motifs were chosen based on successful EMSAs (Sigova et al., 2015). Approximately 200 bp of sequence was added between the binding motifs and the termini in order to provide flexibility for the termini to ligate. The plasmid was built using Gibson assembly.
Next, a PCR was run using plasmid as a template to generate a linear piece of DNA (Table S5). This PCR product was PCR purified (Qiagen 28104) and then digested with BamHI (NEB R3136) and PCR purified. The BamHI digested template was used in the ligation assay.
The ligation assay was carried out as follows. Reactions were prepared on ice in 66 μL with the following components:
BSA control: 0.25 nM DNA, 1× T4 DNA ligase buffer (NEB B0202S), H2O, 0.12 μg/μL of BSA […]
Quantification was done using Image Lab version 5.2.1 (Bio-Rad Laboratories). First, band density of the starting product and ligation product were measured. Then the percent circularized was calculated: (ligation product)/(ligation product+starting band)*100. […]

YY1 = YY1 (Homo sapiens, UniProt P25490 P25490:1-414); test: EMSA; 20 fmol probe, 2 ug YY1, 5 mM MgCl2, 0.1 mM ZnCl2, poly dIdC, RT; abolished by 200-fold cold competitor; settings: label: 5' biotin
YY1, sequence (P25490 whole entry, one chain of several): as the sequence (P25490 whole entry) above
Method: To generate the biotin labeled probe, 30-nucleotide-long 5' biotinylated single stranded oligonucleotides (IDT) were annealed in 10 mM Tris pH 7.5, 50 mM NaCl, and 1 mM EDTA at a 50 uM concentration. The same protocol was used to generate the cold competitor. The probe was serially diluted to a concentration of 10 fmol/4 and cold competitor to a concentration of 2 pmol/µL. 2 µL of diluted probe and cold competitor were used for each binding reaction for a final amount of 20 fmol labeled probe and 4 pmol cold competitor (200 fold excess) in each reaction.
Binding reactions were set-up in a 20 µL volume containing 1× Binding Buffer (10 mM Tris, 50 mM KCl, 1 mM DTT; pH 7.5), 2.5% Glycerol, 5 mM MgCl2, 50 ng/4 Poly dl dC, 0.05% Np-40, 0.1 mM ZnCl2, 10 mM Hepes, and 2 ug of recombinant YY1 protein. Binding reactions were pre-incubated for 20 mins at room temperature with or without the cold competitor. Labeled probe was then added to binding reactions and incubated for 80 minutes at room temperature. […] The DNA was then crosslinked to the membrane by placing the membrane on a Dark Reader Transilluminator for 15 mins. The membrane was allowed to air dry at room temperature overnight and chemiluminescence detected the following day. […]

Molecule: CC[C@H](C(=O)N1CCCC[C@H]1C(=O)O[C@H](CCc1ccc(OC)c(OC)c1)c1ccccc1OCC(=O)NCCCCCCCCNc1ccc2c(c1)C(=O)N(C1CCC(=O)NC1=O)C2=O)c1cc(OC)c(OC)c(OC)c1 (stereo partly drawn) [dTAG-47, (2S)-(1R)-3-(3,4-dimethoxyphenyl)-1-(2-(2-((8-((2-(2,6-dioxopiperidin-3-yl)-1,3-dioxoisoindolin-5-yl)amino)octyl)amino)-2-oxoethoxy)phenyl)propyl 1-((S)-2-(3,4,5-trimethoxyphenyl)butanoyl)piperidine-2-carboxylate]
- enhancer-promoter interactions after YY1 degradation (H3K27ac HiChIP) ([1]; treated): loss in enhancer-promoter interactions
- enhancer-promoter interactions after washout and recovery of YY1 levels (H3K27ac HiChIP) ([1]; washout): substantial increase in enhancer-promoter interactions
- YY1 protein degradation ([2]; FKBP degron tag knocked-in to both alleles of Yy1, mES cells, 24 hours treatment): rapid proteasome-mediated degradation
- washout time allowing recovery of YY1 protein levels ([2]; after 24 hours treatment at 500 nM, drug withdrawal): 5 days

Molecule: FLAG-tagged YY1
- reduction in the amount of co-immunoprecipitated YY1 partner protein after RNase A treatment (HA-tagged YY1): 60%

Molecule: bovine serum albumin (BSA): control protein in the DNA circularization assay
- rate of DNA circularization [3]: did not increase the rate of DNA ligation

B1: competing 200 base pair DNA fragment: 200 base pair DNA fragment containing the YY1 consensus binding sequence, SEQ ID NO: 28 (nucleic acid)
DNA: GAGCAACAACAACAACGAACCGGTTCGACCTCCCCGGCCATCTTTCGACCTCCCCGGCCATCTTTCGACCTCCCCGGCCATCTTTCGACCTCCCCGGCCATCTTTCGACCTCCCCGGCCATCTTTCGACCTCCCCGGCCATCTTTCGACCTCCCCGGCCATCTTTCGACCTCCCGTCGACAGAGGCAGCAAAAGCCAGA
modifications: competitor DNA
- rate of DNA circularization [3]: abrogated circularization

B2: YY1 EMSA probe (dsDNA)
DNA 1: TCGCTCCCCGGCCATCTTGGCGGCTGGTGT
DNA 2: ACACCAGCCGCCAAGATGGCCGGGGAGCGA
- binding result (YY1): binds
